This passage reports melting point results from patent US7368578B2, “Five-membered heterocyclic compounds” (Takeda Pharmaceutical Company Limited, priority 2002, dated 2008).

Each structure is given as a SMILES string.

For `CCOC(=O)c1cn(Cc2ccccc2)nc1OCc1ccc(OCc2nc(-c3ccco3)oc2C)c(Br)c1` [Example 55, ethyl 1-benzyl-3-[(3-bromo-4-{[2-(2-furyl)-5-methyl-1,3-oxazol-4-yl]methoxy}benzyl)oxy]-1H-pyrazole-4-carboxylate], the melting point fell in the range of 158 to 159 °C.

In turn, `CCOC(=O)c1cn(Cc2ccccc2)nc1OCc1ccc(OCc2nc(-c3ccco3)oc2C)c(-c2ccccc2)c1` [Example 56, ethyl 1-benzyl-3-[(4-{[2-(2-furyl)-5-methyl-1,3-oxazol-4-yl]methoxy}-3-phenylbenzyl)oxy]-1H-pyrazole-4-carboxylate] gave a melting point of 134 to 135 °C.

In turn, `Cc1oc(-c2ccco2)nc1COc1ccc(COc2nn(Cc3ccccc3)cc2C(=O)O)cc1-c1ccccc1` [Example 57, 1-benzyl-3-[(4-{[2-(2-furyl)-5-methyl-1,3-oxazol-4-yl]methoxy}-3-phenylbenzyl)oxy]-1H-pyrazole-4-carboxylic acid] displayed a melting point of 181 to 182 °C.

Regarding `Cc1oc(-c2ccco2)nc1COc1ccc(COc2nn(Cc3ccccc3)cc2C=O)cc1-c1ccccc1` [Example 59, 1-benzyl-3-[(4-{[2-(2-furyl)-5-methyl-1,3-oxazol-4-yl]methoxy}-3-phenylbenzyl)oxy]-1H-pyrazole-4-carbaldehyde], the melting point lay within 122 to 123 °C.

Turning to `CCOC(=O)c1cn(Cc2ccccc2)nc1OCc1ccc(OCc2nc(-c3ccco3)oc2C)c(C)c1` [Example 60, ethyl 1-benzyl-3-[(4-{[2-(2-furyl)-5-methyl-1,3-oxazol-4-yl]methoxy}-3-methylbenzyl)oxy]-1H-pyrazole-4-carboxylate], the melting point fell in the range of 120 to 121 °C.

In turn, `Cc1cc(COc2nn(Cc3ccccc3)cc2C(=O)O)ccc1OCc1nc(-c2ccco2)oc1C` [Example 61, 1-benzyl-3-[(4-{[2-(2-furyl)-5-methyl-1,3-oxazol-4-yl]methoxy}-3-methylbenzyl)oxy]-1H-pyrazole-4-carboxylic acid] had a melting point of 176 to 177 °C.

For the compound `Cc1cc(COc2nn(Cc3ccccc3)cc2C=O)ccc1OCc1nc(-c2ccco2)oc1C` [Example 63, 1-benzyl-3-[(4-{[2-(2-furyl)-5-methyl-1,3-oxazol-4-yl]methoxy}-3-methylbenzyl)oxy]-1H-pyrazole-4-carbaldehyde], the melting point lay in the range of 121 to 122 °C.

With `CCOC(=O)c1cn(-c2ccccc2)nc1OCc1oc2cc(OCc3nc(-c4ccccc4)oc3C)ccc2c1-c1ccccc1` [Example 64, ethyl 3-({6-[(5-methyl-2-phenyl-1,3-oxazol-4-yl)methoxy]-3-phenyl-1-benzofuran-2-yl}methoxy)-1-phenyl-1H-pyrazole-4-carboxylate], the melting point fell in the range of 143 to 144 °C.

Consider `Cc1oc(-c2ccccc2)nc1COc1ccc2c(-c3ccccc3)c(COc3nn(-c4ccccc4)cc3C(=O)O)oc2c1` [Example 65, 3-({6-[(5-methyl-2-phenyl-1,3-oxazol-4-yl)methoxy]-3-phenyl-1-benzofuran-2-yl}methoxy)-1-phenyl-1H-pyrazole-4-carboxylic acid], for which the melting point is 200 to 201 °C.

For `Cc1oc(-c2ccccc2)nc1COc1ccc2c(-c3ccccc3)c(COc3nn(-c4ccccc4)cc3CO)oc2c1` [Example 66, [3-({6-[(5-methyl-2-phenyl-1,3-oxazol-4-yl)methoxy]-3-phenyl-1-benzofuran-2-yl}methoxy)-1-phenyl-1H-pyrazol-4-yl]methanol], the melting point is 118 to 119 °C.

`Cc1oc(-c2ccccc2)nc1COc1ccc2c(-c3ccccc3)c(COc3nn(-c4ccccc4)cc3C=O)oc2c1` [Example 67, 3-({6-[(5-methyl-2-phenyl-1,3-oxazol-4-yl)methoxy]-3-phenyl-1-benzofuran-2-yl}methoxy)-1-phenyl-1H-pyrazole-4-carbaldehyde] returned a melting point of 176 to 177 °C.

In the case of `CCOC(=O)c1cn(Cc2ccccc2)nc1OCc1ccc(OCc2nc(-c3ccco3)oc2C)c(CC)c1` [Example 68, ethyl 1-benzyl-3-[(3-ethyl-4-{[2-(2-furyl)-5-methyl-1,3-oxazol-4-yl]methoxy}benzyl)oxy]-1H-pyrazole-4-carboxylate], the melting point lay within 125 to 126 °C.

Take `CCc1cc(COc2nn(Cc3ccccc3)cc2C(=O)O)ccc1OCc1nc(-c2ccco2)oc1C` [Example 69, 1-benzyl-3-[(3-ethyl-4-{[2-(2-furyl)-5-methyl-1,3-oxazol-4-yl]methoxy}benzyl)oxy]-1H-pyrazole-4-carboxylic acid]: the melting point fell in the range of 173 to 174 °C.

`CCc1cc(COc2nn(Cc3ccccc3)cc2C=O)ccc1OCc1nc(-c2ccco2)oc1C` [Example 71, 1-benzyl-3-[(3-ethyl-4-{[2-(2-furyl)-5-methyl-1,3-oxazol-4-yl]methoxy}benzyl)oxy]-1H-pyrazole-4-carbaldehyde] yielded a melting point of 128 to 129 °C.

`COc1cc(COc2nn(-c3ccccc3)cc2C(=O)O)ccc1OCc1nc(-c2ccco2)oc1C` [Example 73, 3-[(4-{[2-(2-furyl)-5-methyl-1,3-oxazol-4-yl]methoxy}-3-methoxybenzyl)oxy]-1-phenyl-1H-pyrazole-4-carboxylic acid] returned a melting point of 184 to 185 °C.

Take `COc1cc(COc2nn(-c3ccccc3)cc2C(N)=O)ccc1OCc1nc(-c2ccco2)oc1C` [Example 74, 3-[(4-{[2-(2-furyl)-5-methyl-1,3-oxazol-4-yl]methoxy}-3-methoxybenzyl)oxy]-1-phenyl-1H-pyrazole-4-carboxamide]: the melting point lay within 175 to 176 °C.

For `CCOC(=O)/C=C/c1cn(-c2ccccc2)nc1OCc1ccc(OCc2nc(-c3ccco3)oc2C)c(OC)c1` [Example 78, ethyl (2E)-3-{3-[(4-{[2-(2-furyl)-5-methyl-1,3-oxazol-4-yl]methoxy}-3-methoxybenzyl)oxy]-1-phenyl-1H-pyrazol-4-yl}-2-propenoate], the melting point lay in the range of 177 to 178 °C.

For `COc1cc(COc2nn(-c3ccccc3)cc2/C=C/C(=O)O)ccc1OCc1nc(-c2ccco2)oc1C` [Example 79, (2E)-3-{3-[(4-{[2-(2-furyl)-5-methyl-1,3-oxazol-4-yl]methoxy}-3-methoxybenzyl)oxy]-1-phenyl-1H-pyrazol-4-yl}-2-propenoic acid], the melting point fell in the range of 204 to 205 °C.

In the case of `Cc1oc(-c2ccccc2)nc1COc1ccc(COc2nn(-c3ccccc3)cc2C=O)cc1` [Example 80, 3-({4-[(2-phenyl-5-methyl-1,3-oxazol-4-yl)methoxy]benzyl}oxy)-1-phenyl-1H-pyrazole-4-carbaldehyde], the melting point was 152 to 153 °C.

In the case of `Cc1oc(-c2ccccc2)nc1COc1ccc(COc2nn(-c3ccccc3)cc2CO)cc1` [Example 81, [3-({4-[(2-phenyl-5-methyl-1,3-oxazol-4-yl)methoxy]benzyl}oxy)-1-phenyl-1H-pyrazol-4-yl]methanol], the melting point lay in the range of 118 to 119 °C.

With `CCOC(=O)/C=C/c1cn(-c2ccccc2)nc1OCc1ccc(OCc2nc(-c3ccccc3)oc2C)cc1` [Example 82, ethyl (2E)-3-[3-({4-[(2-phenyl-5-methyl-1,3-oxazol-4-yl)methoxy]benzyl}oxy)-1-phenyl-1H-pyrazol-4-yl]-2-propenoate], the melting point lay in the range of 154 to 155 °C.

In the case of `Cc1oc(-c2ccccc2)nc1COc1ccc(COc2nn(-c3ccccc3)cc2/C=C/C(=O)O)cc1` [Example 83, (2E)-3-[3-({4-[(2-phenyl-5-methyl-1,3-oxazol-4-yl)methoxy]benzyl}oxy)-1-phenyl-1H-pyrazol-4-yl]-2-propenoic acid], the melting point lay within 186 to 187 °C.

`Cc1oc(-c2ccco2)nc1COc1ccc(COc2nn(-c3ccccc3)cc2C=O)cc1` [Example 85, 3-[(4-{[2-(2-furyl)-5-methyl-1,3-oxazol-4-yl]methoxy}benzyl)oxy]-1-phenyl-1H-pyrazole-4-carbaldehyde] returned a melting point of 148 to 149 °C.

The compound `CCOC(=O)/C=C/c1cn(-c2ccccc2)nc1OCc1ccc(OCc2nc(-c3ccco3)oc2C)cc1` [Example 87, ethyl (2E)-3-(3-[(4-{[2-(2-furyl)-5-methyl-1,3-oxazol-4-yl]methoxy}benzyl)oxy]-1-phenyl-1H-pyrazol-4-yl}-2-propenoate] came in with a melting point of 142 to 143 °C.

With `Cc1oc(-c2ccco2)nc1COc1ccc(COc2nn(-c3ccccc3)cc2/C=C/C(=O)O)cc1` [Example 88, (2E)-3-{3-[(4-{[2-(2-furyl)-5-methyl-1,3-oxazol-4-yl]methoxy}benzyl)oxy]-1-phenyl-1H-pyrazol-4-yl}-2-propenoic acid], the melting point is 144 to 145 °C.

`Cc1oc(-c2ccco2)nc1COc1ccc(COc2nn(-c3ccccc3)cc2C#N)cc1` [Example 89, 3-[(4-{[2-(2-furyl)-5-methyl-1,3-oxazol-4-yl]methoxy}benzyl)oxy]-1-phenyl-1H-pyrazole-4-carbonitrile] came in with a melting point of 158 to 159 °C.

The compound `Cc1oc(-c2ccccc2)nc1COc1ccc(OCc2nc(-c3ccccc3)oc2CO)cc1` [Example 91, [4-({4-[(5-methyl-2-phenyl-1,3-oxazol-4-yl)methoxy]phenoxy}methyl)-2-phenyl-1,3-oxazol-5-yl]methanol] came in with a melting point of 157 to 158 °C.

Compound `COCOCc1nc(-c2ccccc2)oc1COc1ccc(OCc2nc(-c3ccccc3)oc2C)cc1` [Example 92, 4-[(methoxymethoxy)methyl]-5-({4-[(5-methyl-2-phenyl-1,3-oxazol-4-yl)methoxy]phenoxy}methyl)-2-phenyl-1,3-oxazole] showed a melting point of 74 to 75 °C.

As for `Cc1oc(-c2ccccc2)nc1COc1ccc(OCc2oc(-c3ccccc3)nc2CO)cc1` [Example 93, [5-({4-[(5-methyl-2-phenyl-1,3-oxazol-4-yl)methoxy]phenoxy}methyl)-2-phenyl-1,3-oxazol-4-yl]methanol], the melting point lay in the range of 143 to 144 °C.

Compound `COc1cc(COc2nn(-c3ccccc3)cc2/C=C/C(N)=O)ccc1OCc1nc(-c2ccco2)oc1C` [Example 94, (2E)-3-{3-[(4-{[2-(2-furyl)-5-methyl-4-oxazolyl]methoxy}-3-methoxybenzyl)oxy]-1-phenyl-1H-pyrazol-4-yl}-2-propenamide] displayed a melting point of 187 to 188 °C.
